In ChEMBL document CHEMBL5303573, “Mapping human microbiome drug metabolism by gut bacteria and their genes” (Nature, 2019):

Assay: The drug is tested on Bifidobacterium ruminantium strain: fecal isolate for biotransformation. The drug concentrations were measured before and after a 12-h incubation by liquid-chromatography-coupled mass spectrometry (LC–MS)
Details: 2 µM
In the case of O=c1[nH]c2ccccc2n1C1CCN(CCCC(c2ccc(F)cc2)c2ccc(F)cc2)CC1 [PIMOZIDE], the “Bacterial Biotransformation” value is reported as “Compound NOT metabolized”.
For O=C(NCc1ccccc1)OCCO [BURAMATE], the “Bacterial Biotransformation” value was “Compound NOT metabolized”.

Assay: The drug is tested on Alistipes indistinctus strain: DSM22520 for biotransformation. The drug concentrations were measured before and after a 12-h incubation by liquid-chromatography-coupled mass spectrometry (LC–MS)
Details: 2 µM
In the case of O=c1[nH]c2ccccc2n1C1CCN(CCCC(c2ccc(F)cc2)c2ccc(F)cc2)CC1 [PIMOZIDE], the “Bacterial Biotransformation” value is reported as “Compound NOT metabolized”.
In the case of O=C(NCc1ccccc1)OCCO [BURAMATE], the “Bacterial Biotransformation” value is reported as “Compound NOT metabolized”.

Assay: The drug is tested on Bacteroides fragilis strain: HMW615 for biotransformation. The drug concentrations were measured before and after a 12-h incubation by liquid-chromatography-coupled mass spectrometry (LC–MS)
Details: 2 µM
With O=c1[nH]c2ccccc2n1C1CCN(CCCC(c2ccc(F)cc2)c2ccc(F)cc2)CC1 [PIMOZIDE] the “Bacterial Biotransformation” value was “Compound NOT metabolized”.
For O=C(NCc1ccccc1)OCCO [BURAMATE], the “Bacterial Biotransformation” value was “Compound NOT metabolized”.

Assay: The drug is tested on Bacteroides uniformis strain: ATCC8492 for biotransformation. The drug concentrations were measured before and after a 12-h incubation by liquid-chromatography-coupled mass spectrometry (LC–MS)
Details: 2 µM
With O=c1[nH]c2ccccc2n1C1CCN(CCCC(c2ccc(F)cc2)c2ccc(F)cc2)CC1 [PIMOZIDE] the “Bacterial Biotransformation” value was “Compound NOT metabolized”.
In the case of O=C(NCc1ccccc1)OCCO [BURAMATE], the “Bacterial Biotransformation” value is reported as “Compound NOT metabolized”.

Assay: The drug is tested on Bacteroides vulgatus strain: ATCC8482 for biotransformation. The drug concentrations were measured before and after a 12-h incubation by liquid-chromatography-coupled mass spectrometry (LC–MS)
Details: phocaeicola vulgatus, 2 µM
In the case of O=c1[nH]c2ccccc2n1C1CCN(CCCC(c2ccc(F)cc2)c2ccc(F)cc2)CC1 [PIMOZIDE], the “Bacterial Biotransformation” value is reported as “Compound NOT metabolized”.
With O=C(NCc1ccccc1)OCCO [BURAMATE] the “Bacterial Biotransformation” value was “Compound NOT metabolized”.

Assay: The drug is tested on Bacteroides xylanisolvens strain: DSM18836 for biotransformation. The drug concentrations were measured before and after a 12-h incubation by liquid-chromatography-coupled mass spectrometry (LC–MS)
Details: 2 µM
For O=c1[nH]c2ccccc2n1C1CCN(CCCC(c2ccc(F)cc2)c2ccc(F)cc2)CC1 [PIMOZIDE], the “Bacterial Biotransformation” value was “Compound NOT metabolized”.
With O=C(NCc1ccccc1)OCCO [BURAMATE] the “Bacterial Biotransformation” value was “Compound NOT metabolized”.

Assay: The drug is tested on Odoribacter splanchnicus strain: fecal isolate for biotransformation. The drug concentrations were measured before and after a 12-h incubation by liquid-chromatography-coupled mass spectrometry (LC–MS)
Details: 2 µM
In the case of O=c1[nH]c2ccccc2n1C1CCN(CCCC(c2ccc(F)cc2)c2ccc(F)cc2)CC1 [PIMOZIDE], the “Bacterial Biotransformation” value is reported as “Compound NOT metabolized”.
With O=C(NCc1ccccc1)OCCO [BURAMATE] the “Bacterial Biotransformation” value was “Compound NOT metabolized”.

Assay: The drug is tested on Blautia hansenii strain: DSM20583 for biotransformation. The drug concentrations were measured before and after a 12-h incubation by liquid-chromatography-coupled mass spectrometry (LC–MS)
Details: 2 µM
With O=c1[nH]c2ccccc2n1C1CCN(CCCC(c2ccc(F)cc2)c2ccc(F)cc2)CC1 [PIMOZIDE] the “Bacterial Biotransformation” value was “Compound NOT metabolized”.
For O=C(NCc1ccccc1)OCCO [BURAMATE], the “Bacterial Biotransformation” value was “Compound NOT metabolized”.

Assay: The drug is tested on Clostridium sporogenes strain: ATCC15579 for biotransformation. The drug concentrations were measured before and after a 12-h incubation by liquid-chromatography-coupled mass spectrometry (LC–MS)
Details: 2 µM
For O=c1[nH]c2ccccc2n1C1CCN(CCCC(c2ccc(F)cc2)c2ccc(F)cc2)CC1 [PIMOZIDE], the “Bacterial Biotransformation” value was “Compound NOT metabolized”.
For O=C(NCc1ccccc1)OCCO [BURAMATE], the “Bacterial Biotransformation” value was “Compound NOT metabolized”.

Assay: The drug is tested on Coprococcus comes strain: ATCC27758 for biotransformation. The drug concentrations were measured before and after a 12-h incubation by liquid-chromatography-coupled mass spectrometry (LC–MS)
Format: ADME
Design: dose 2 uM, timepoint 0 vs 12 hours
Details: 2 µM
For O=c1[nH]c2ccccc2n1C1CCN(CCCC(c2ccc(F)cc2)c2ccc(F)cc2)CC1 [PIMOZIDE], the “Bacterial Biotransformation” value was “Compound NOT metabolized”.
With O=C(NCc1ccccc1)OCCO [BURAMATE] the “Bacterial Biotransformation” value was “Compound NOT metabolized”.

Assay: The drug is tested on Dorea formicigenerans strain: ATCC27755 for biotransformation. The drug concentrations were measured before and after a 12-h incubation by liquid-chromatography-coupled mass spectrometry (LC–MS)
Details: 2 µM
In the case of O=c1[nH]c2ccccc2n1C1CCN(CCCC(c2ccc(F)cc2)c2ccc(F)cc2)CC1 [PIMOZIDE], the “Bacterial Biotransformation” value is reported as “Compound NOT metabolized”.
For O=C(NCc1ccccc1)OCCO [BURAMATE], the “Bacterial Biotransformation” value was “Compound NOT metabolized”.

Assay: The drug is tested on Enterococcus faecalis strain: V583 for biotransformation. The drug concentrations were measured before and after a 12-h incubation by liquid-chromatography-coupled mass spectrometry (LC–MS)
Details: 2 µM
In the case of O=c1[nH]c2ccccc2n1C1CCN(CCCC(c2ccc(F)cc2)c2ccc(F)cc2)CC1 [PIMOZIDE], the “Bacterial Biotransformation” value is reported as “Compound NOT metabolized”.
For O=C(NCc1ccccc1)OCCO [BURAMATE], the “Bacterial Biotransformation” value was “Compound NOT metabolized”.

Assay: The drug is tested on Eubacterium ventriosum strain: ATCC27560 for biotransformation. The drug concentrations were measured before and after a 12-h incubation by liquid-chromatography-coupled mass spectrometry (LC–MS)
Format: ADME
Design: dose 2 uM, timepoint 0 vs 12 hours
Details: 2 µM
In the case of O=c1[nH]c2ccccc2n1C1CCN(CCCC(c2ccc(F)cc2)c2ccc(F)cc2)CC1 [PIMOZIDE], the “Bacterial Biotransformation” value is reported as “Compound NOT metabolized”.
With O=C(NCc1ccccc1)OCCO [BURAMATE] the “Bacterial Biotransformation” value was “Compound NOT metabolized”.

Assay: The drug is tested on Ruminococcus lactaris strain: ATCC29176 for biotransformation. The drug concentrations were measured before and after a 12-h incubation by liquid-chromatography-coupled mass spectrometry (LC–MS)
Details: 2 µM
With O=c1[nH]c2ccccc2n1C1CCN(CCCC(c2ccc(F)cc2)c2ccc(F)cc2)CC1 [PIMOZIDE] the “Bacterial Biotransformation” value was “Compound NOT metabolized”.
With O=C(NCc1ccccc1)OCCO [BURAMATE] the “Bacterial Biotransformation” value was “Compound NOT metabolized”.

Assay: The drug is tested on Ruminococcus torques strain: ATCC27756 for biotransformation. The drug concentrations were measured before and after a 12-h incubation by liquid-chromatography-coupled mass spectrometry (LC–MS)
Format: ADME
Design: dose 2 uM, timepoint 0 vs 12 hours
Details: 2 µM
For O=c1[nH]c2ccccc2n1C1CCN(CCCC(c2ccc(F)cc2)c2ccc(F)cc2)CC1 [PIMOZIDE], the “Bacterial Biotransformation” value was “Compound NOT metabolized”.
With O=C(NCc1ccccc1)OCCO [BURAMATE] the “Bacterial Biotransformation” value was “Compound NOT metabolized”.

Assay: The drug is tested on Providencia rettgeri strain: DSM1131 for biotransformation. The drug concentrations were measured before and after a 12-h incubation by liquid-chromatography-coupled mass spectrometry (LC–MS)
Format: ADME
Design: dose 2 uM, timepoint 0 vs 12 hours
Details: 2 µM
In the case of O=c1[nH]c2ccccc2n1C1CCN(CCCC(c2ccc(F)cc2)c2ccc(F)cc2)CC1 [PIMOZIDE], the “Bacterial Biotransformation” value is reported as “Compound NOT metabolized”.
For O=C(NCc1ccccc1)OCCO [BURAMATE], the “Bacterial Biotransformation” value was “Compound NOT metabolized”.

Details: segatella copri, 12 h, 2 µM
Description: The drug is tested on Prevotella copri strain: DSM18205 for biotransformation. The drug concentrations were measured before and after a 12-h incubation by liquid-chromatography-coupled mass spectrometry (LC–MS)
With O=c1[nH]c2ccccc2n1C1CCN(CCCC(c2ccc(F)cc2)c2ccc(F)cc2)CC1 [PIMOZIDE] the “Bacterial Biotransformation” value was “Compound NOT metabolized”.
For O=C(NCc1ccccc1)OCCO [BURAMATE], the “Bacterial Biotransformation” value was “Compound NOT metabolized”.

Details: anaerostipes sp., 12 h, 2 µM
Description: The drug is tested on Anaerostipes sp. strain: fecal isolate for biotransformation. The drug concentrations were measured before and after a 12-h incubation by liquid-chromatography-coupled mass spectrometry (LC–MS)
For O=c1[nH]c2ccccc2n1C1CCN(CCCC(c2ccc(F)cc2)c2ccc(F)cc2)CC1 [PIMOZIDE], the “Bacterial Biotransformation” value was “Compound NOT metabolized”.
In the case of O=C(NCc1ccccc1)OCCO [BURAMATE], the “Bacterial Biotransformation” value is reported as “Compound NOT metabolized”.

Details: roseburia intestinalis, 12 h, 2 µM
Description: The drug is tested on Roseburia intestinalis strain: L1-82 for biotransformation. The drug concentrations were measured before and after a 12-h incubation by liquid-chromatography-coupled mass spectrometry (LC–MS)
With O=c1[nH]c2ccccc2n1C1CCN(CCCC(c2ccc(F)cc2)c2ccc(F)cc2)CC1 [PIMOZIDE] the “Bacterial Biotransformation” value was “Compound NOT metabolized”.
In the case of O=C(NCc1ccccc1)OCCO [BURAMATE], the “Bacterial Biotransformation” value is reported as “Compound NOT metabolized”.

Details: akkermansia muciniphila, 12 h, 2 µM
Description: The drug is tested on Akkermansia muciniphila strain: ATCC BAA-835 for biotransformation. The drug concentrations were measured before and after a 12-h incubation by liquid-chromatography-coupled mass spectrometry (LC–MS)
With O=c1[nH]c2ccccc2n1C1CCN(CCCC(c2ccc(F)cc2)c2ccc(F)cc2)CC1 [PIMOZIDE] the “Bacterial Biotransformation” value was “Compound NOT metabolized”.
For O=C(NCc1ccccc1)OCCO [BURAMATE], the “Bacterial Biotransformation” value was “Compound NOT metabolized”.
